Usually Kd stands for the free concentration of one partner at which half of the binding sites on the other are occupied at equilibrium, for simple one-to-one binding.

Bounds are passed on as bounds.

The values that follow come from paper PMC8991199, “Promiscuity mapping of the S100 protein family using a high-throughput holdup assay” (Scientific Reports, 2022).

One data set deals with T1, S100B (Homo sapiens, UniProt P04271).
T1 sequence (P04271 1-92): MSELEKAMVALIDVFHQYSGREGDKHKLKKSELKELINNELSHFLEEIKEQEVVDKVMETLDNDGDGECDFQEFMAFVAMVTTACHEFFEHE
Briefly: direct fluorescence polarization (FP), S100B. The format is binding. Particulars: 50 nM labeled foldamer, 20 mM HEPES pH 7.5, 150 mM NaCl, 1 mM CaCl2, 0.5 mM TCEP, 0.01% Tween20, quadratic fit, mean ± SEM, three technical repeats, threshold 1 mM. On the procedure: HTP (and also low-throughput) measurements generally need to be validated by an orthogonal approach to eliminate experimental artifacts. […] This way, we chose WL, IF, WW, YF, IL, VL, TW, RF, RR, TI, TM, and after resynthesizing with a fluorescent label at the C-terminus (Figs. S15–S26, Table S1), the S100ome was tested against the labeled foldamers by direct fluorescence polarization (FP) (Fig. 3A). In this assay, the association of the fluorescently labeled foldamer and the S100 protein of interest is monitored, through the change in polarization of the emitted light by the fluorophore upon the binding event. In direct FP, the presence of the fluorophore might change the binding affinity of some foldamers. […] Nevertheless, we assumed that the fluorophore would affect all foldamers that target the same binding site to the same degree, because the foldamer scaffold is rigid. Defining the threshold of detection at the dissociation constant of 1 mM, we identified 87 interactions between the selected foldamer fragments and the S100ome out of 220 possible interactions (Table 1, Fig. S4-14).
(§1) Briefly, S100 proteins were cloned into a modified pET15b vector with a TEV protease cleavable N-terminal His6-tag and expressed in Escherichia coli BL21 (DE3) cells, followed by Ni^2+-affinity chromatography. For HU assay, S100 proteins were further purified by either hydrophobic interaction chromatography or ion exchange chromatography without the cleavage of the N-terminal His6-tag applying standard conditions. For direct FP measurements, the N-terminal His6-tag was cleaved, and the S100 proteins were purified by hydrophobic interaction chromatography, ion exchange chromatography or size exclusion chromatography. The quality of the recombinant proteins was checked by SDS-PAGE analysis in all cases. The concentration of the recombinant S100 proteins was determined by UV spectrophotometry using the absorbance of Tyr and Trp residues.
(§2) In direct fluorescence polarization assays, S100 proteins were diluted in a buffer containing 50 nM labeled foldamer, 20 mM HEPES pH 7.5, 150 mM NaCl, 1 mM CaCl2, 0.5 mM TCEP and 0.01% Tween20. The dilution series (50 µl) were divided into three technical repeats and transferred (15 µl) to a 384-well microplate. In competitive fluorescence polarization assays, the buffer applied in direct measurements was supplemented with the S100 protein of interest to reach a saturation of 60–80%. This mixture was titrated with the competitor (i.e. the unlabeled peptide). Fluorescence polarization was measured in 8 different S100 concentrations (one of which contained no S100 protein) on a Synergy H4 plate reader using 485 ± 20 nm and 528 ± 20 nm band-pass filters for excitation and emission, respectively. The Kd values were obtained by fitting the data from the FP measurements with the python-based ProFit software using quadratic and competitive binding equation for direct and competitive FP, respectively. The detection threshold was based on two parameters. First, we rejected all fitted dissociation constants above 1 mM.

In a further data set the target is S100A6 (Homo sapiens, UniProt P06703). Briefly: direct fluorescence polarization (FP), S100A6. The data set is classed as binding.
Text: HTP (and also low-throughput) measurements generally need to be validated by an orthogonal approach to eliminate experimental artifacts. […] In this assay, the association of the fluorescently labeled foldamer and the S100 protein of interest is monitored, through the change in polarization of the emitted light by the fluorophore upon the binding event. In direct FP, the presence of the fluorophore might change the binding affinity of some foldamers. […] Nevertheless, we assumed that the fluorophore would affect all foldamers that target the same binding site to the same degree, because the foldamer scaffold is rigid.
as §1, §2
A general note: Polarisation of emitted light reports the rotation of a fluorescent probe.

Data set [1] can be described thus: solubility by light scattering. As to conditions: 20 mM HEPES, 150 mM NaCl, 2 mM CaCl2, pH 7.5, 10 nM to 1 mM, triplicates.
Procedure: Foldamers were dissolved in a buffer consisting of 20 mM HEPES, 150 mM NaCl, 2 mM CaCl2, pH = 7.5 at 11 different concentrations from 10 nM to 1 mM. 100 μl samples in triplicates were pipetted into a 96-well ELISA plate and absorbance values were recorded by using FLUOstar OPTIMA plate reader at 650 nm wavelength.

For `N=C(N)NCCC[C@@H](CC(=O)N[C@H]1CCCC[C@@H]1C(=O)NCC(=O)N[C@@H](CCCCNC(=O)c1ccc2c(c1)C1(OC2=O)c2ccc(O)cc2Oc2cc(O)ccc21)C(N)=O)NC(=O)[C@H]1CCCC[C@@H]1NC(=O)[C@H]1CCCC[C@@H]1NC(=O)C[C@H](CCCNC(=N)N)NC(=O)[C@H]1CCCC[C@@H]1N` [fRR], the Kd on S100B was 210 ± 26 µM; on S100A6, over 1000 µM.
On to `N=C(N)NCCC[C@@H](CC(=O)N[C@H]1CCCC[C@@H]1C(=O)N[C@H]1CCCC[C@@H]1C(=O)N[C@H](CC(=O)N[C@H]1CCCC[C@@H]1C(=O)NCC(=O)N[C@@H](CCCCNC(=O)c1ccc2c(c1)C1(OC2=O)c2ccc(O)cc2Oc2cc(O)ccc21)C(N)=O)Cc1ccccc1)NC(=O)[C@H]1CCCC[C@@H]1N` [fRF], for which, on S100B, the Kd worked out at 230 ± 5.9 µM.
As for `NC(=O)[C@H](CCCCNC(=O)c1ccc2c(c1)C1(OC2=O)c2ccc(O)cc2Oc2cc(O)ccc21)NC(=O)CNC(=O)[C@H]1CCCC[C@@H]1NC(=O)C[C@H](Cc1c[nH]c2ccccc12)NC(=O)[C@H]1CCCC[C@@H]1NC(=O)[C@H]1CCCC[C@@H]1NC(=O)C[C@H](Cc1c[nH]c2ccccc12)NC(=O)[C@H]1CCCC[C@@H]1N` [fWW], in data set [1] (Fig. S2, absorbance at 650 nm), the “concentration above which light scattering is increased” value is reported as “above 1 μM”. The “concentration at which aggregation was observed” value in data set [1] (light scattering on 600 nm (text; method: absorbance at 650 nm)) is 10 µM. The figures for the Kd on S100B and on S100A6 were over 1000 µM and 100 ± 3.2 µM, respectively.
For `CC(C)C[C@@H](CC(=O)N[C@H]1CCCC[C@@H]1C(=O)NCC(=O)N[C@@H](CCCCNC(=O)c1ccc2c(c1)C1(OC2=O)c2ccc(O)cc2Oc2cc(O)ccc21)C(N)=O)NC(=O)[C@H]1CCCC[C@@H]1NC(=O)[C@H]1CCCC[C@@H]1NC(=O)C[C@H](Cc1c[nH]c2ccccc12)NC(=O)[C@H]1CCCC[C@@H]1N` [fWL], the Kd on S100B was 11 ± 0.81 µM; on S100A6, 30 ± 1.7 µM.
In the case of `CSCC[C@@H](CC(=O)N[C@H]1CCCC[C@@H]1C(=O)NCC(=O)N[C@@H](CCCCNC(=O)c1ccc2c(c1)C1(OC2=O)c2ccc(O)cc2Oc2cc(O)ccc21)C(N)=O)NC(=O)[C@H]1CCCC[C@@H]1NC(=O)[C@H]1CCCC[C@@H]1NC(=O)C[C@@H](NC(=O)[C@H]1CCCC[C@@H]1N)[C@@H](C)O` [fTM], the Kd is over 1000 µM at S100B and 517 ± 57 µM at S100A6.
As for `CC[C@H](C)[C@@H](CC(=O)N[C@H]1CCCC[C@@H]1C(=O)N[C@H]1CCCC[C@@H]1C(=O)N[C@H](CC(=O)N[C@H]1CCCC[C@@H]1C(=O)NCC(=O)N[C@@H](CCCCNC(=O)c1ccc2c(c1)C1(OC2=O)c2ccc(O)cc2Oc2cc(O)ccc21)C(N)=O)Cc1ccccc1)NC(=O)[C@H]1CCCC[C@@H]1N` [fIF], the Kd at S100B is 140 ± 7.9 µM.
Still for that read-out and setting: in the case of `NC(=O)[C@H](CCCCNC(=O)c1ccc2c(c1)C1(OC2=O)c2ccc(O)cc2Oc2cc(O)ccc21)NC(=O)CNC(=O)[C@H]1CCCC[C@@H]1NC(=O)C[C@H](Cc1ccccc1)NC(=O)[C@H]1CCCC[C@@H]1NC(=O)[C@H]1CCCC[C@@H]1NC(=O)C[C@H](Cc1ccc(O)cc1)NC(=O)[C@H]1CCCC[C@@H]1N` [fYF] it was 28 ± 1.7 µM.
Regarding `CC[C@H](C)[C@@H](CC(=O)N[C@H]1CCCC[C@@H]1C(=O)NCC(=O)N[C@@H](CCCCNC(=O)c1ccc2c(c1)C1(OC2=O)c2ccc(O)cc2Oc2cc(O)ccc21)C(N)=O)NC(=O)[C@H]1CCCC[C@@H]1NC(=O)[C@H]1CCCC[C@@H]1NC(=O)C[C@@H](NC(=O)[C@H]1CCCC[C@@H]1N)[C@@H](C)O` [fTI], the Kd is over 1000 µM at S100B and 699 ± 63 µM on S100A6.
With `C[C@@H](O)[C@@H](CC(=O)N[C@H]1CCCC[C@@H]1C(=O)N[C@H]1CCCC[C@@H]1C(=O)N[C@H](CC(=O)N[C@H]1CCCC[C@@H]1C(=O)NCC(=O)N[C@@H](CCCCNC(=O)c1ccc2c(c1)C1(OC2=O)c2ccc(O)cc2Oc2cc(O)ccc21)C(N)=O)Cc1c[nH]c2ccccc12)NC(=O)[C@H]1CCCC[C@@H]1N` [fTW], on S100B, the Kd is 280 ± 17 µM.
On the same count and under the same terms, in the case of `CC[C@H](C)[C@@H](CC(=O)N[C@H]1CCCC[C@@H]1C(=O)N[C@H]1CCCC[C@@H]1C(=O)N[C@H](CC(=O)N[C@H]1CCCC[C@@H]1C(=O)NCC(=O)N[C@@H](CCCCNC(=O)c1ccc2c(c1)C1(OC2=O)c2ccc(O)cc2Oc2cc(O)ccc21)C(N)=O)CC(C)C)NC(=O)[C@H]1CCCC[C@@H]1N` [fIL] it was 63 ± 4.4 µM.
The same measure, in the same setting: the value for `CC(C)C[C@@H](CC(=O)N[C@H]1CCCC[C@@H]1C(=O)NCC(=O)N[C@@H](CCCCNC(=O)c1ccc2c(c1)C1(OC2=O)c2ccc(O)cc2Oc2cc(O)ccc21)C(N)=O)NC(=O)[C@H]1CCCC[C@@H]1NC(=O)[C@H]1CCCC[C@@H]1NC(=O)C[C@@H](NC(=O)[C@H]1CCCC[C@@H]1N)C(C)C` [fVL] was 50 ± 6.4 µM.
